Data as given in patent US10442796B2, “2,3,5-substituted thiophene compound as protein kinase inhibitor” (KOREA INSTITUTE OF SCIENCE AND TECHNOLOGY, priority 2016, dated 2019).
Where a chain is given by its changes, count along the chain named. Counter-ions that a name gives are not always drawn.

Assays:
Assay in all cases: Growth inhibitory activity against Ba/F3 cell line
Format in all cases: cell-based
Parental Ba/F3 cells = conditions: BaF3; Parental Ba/F3 with mouse IL-3 1 ng/mL; 72 hours; cell titer glo
Protocol: (§1) A Ba/F3 cell line expressing an FLT3 mutation gene was cultured in a culture solution including 90% RPMI, 10% FBS, and an antibiotic (Welgene). 100 uL of the Ba/F3 cell line was put into each of 5,000 wells of a TC-treated 96 well plate (SPL), and then 1 uL of a test compound diluted in dimethylsulfoxide (diluted for each 3 paint from a concentration of 1 mM, total 10 concentrations) was each injected thereinto. Thereafter, the resulting cell lines were incubated in a cell culture incubator for 72 hours. 50 uL of a cell titer glo (Promega) solution was added thereto, the resulting mixture was stored at room temperature for 10 minutes, and then the light emission intensity was measured by using a reader (Envision, PerkinElmer). The light emission intensity was shown as a graph for each final concentration of the test compound, and the GI50 value was obtained by using a Prism 5.0 (GraphPad) software.
A parental Ba/F3 cell line having no FLT3 mutation gene was cultured by using a culture solution supplemented with mouse IL-3 (R&D Systems), such that a final concentration became 1 ng/mL in the culture solution including 90% RPMI, 10% FBS, and an antibiotic (Welgene). The activity was measured by a method which is the same as described above.

FLT3-ITD Ba/F3 cells = target: T1, FLT3-ITD Ba/F3 cells (Homo sapiens, UniProt P36888, cells depend on it, form not given); conditions: Ba/F3 expressing FLT3-ITD; 72 hours; cell titer glo; read-out: IC50 (uM) FLT3-ITD
T1 sequence (P36888 1-993): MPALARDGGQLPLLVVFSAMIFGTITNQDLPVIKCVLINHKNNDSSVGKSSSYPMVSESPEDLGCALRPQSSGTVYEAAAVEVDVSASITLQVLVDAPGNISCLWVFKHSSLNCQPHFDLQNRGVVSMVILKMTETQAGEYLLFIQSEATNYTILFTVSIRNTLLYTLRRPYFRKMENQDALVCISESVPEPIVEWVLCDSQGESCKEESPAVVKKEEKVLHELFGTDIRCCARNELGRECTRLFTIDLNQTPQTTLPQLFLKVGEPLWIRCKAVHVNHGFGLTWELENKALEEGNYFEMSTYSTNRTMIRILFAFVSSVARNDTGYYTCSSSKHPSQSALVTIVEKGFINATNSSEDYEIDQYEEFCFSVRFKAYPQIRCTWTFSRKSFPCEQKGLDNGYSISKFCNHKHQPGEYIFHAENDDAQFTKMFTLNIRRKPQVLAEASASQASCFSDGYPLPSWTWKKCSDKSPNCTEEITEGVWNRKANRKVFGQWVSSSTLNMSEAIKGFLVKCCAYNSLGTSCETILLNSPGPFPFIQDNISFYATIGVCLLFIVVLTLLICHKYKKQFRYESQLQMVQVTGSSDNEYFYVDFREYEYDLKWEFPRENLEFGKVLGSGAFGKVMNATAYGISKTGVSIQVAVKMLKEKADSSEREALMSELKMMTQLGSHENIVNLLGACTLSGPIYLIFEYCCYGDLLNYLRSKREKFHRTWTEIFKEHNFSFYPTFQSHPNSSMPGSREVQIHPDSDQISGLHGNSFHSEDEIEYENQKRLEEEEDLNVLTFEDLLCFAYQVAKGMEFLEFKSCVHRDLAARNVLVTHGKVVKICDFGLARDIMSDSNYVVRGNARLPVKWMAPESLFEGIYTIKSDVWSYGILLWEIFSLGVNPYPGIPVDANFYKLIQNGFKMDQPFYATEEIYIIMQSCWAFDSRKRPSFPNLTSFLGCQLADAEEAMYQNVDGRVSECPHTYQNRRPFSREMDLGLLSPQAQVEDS
Protocol: as §1

FLT3-D835Y Ba/F3 cells = target: T2, FLT3-D835Y Ba/F3 cells (Homo sapiens, UniProt P36888, D835Y, cells depend on it); conditions: Ba/F3 expressing FLT3-D835Y; 72 hours; cell titer glo; read-out: IC50 (uM) FLT3-D835Y
T2 sequence (P36888 1-993 D835Y): T1 sequence (P36888 1-993) with D835Y
Protocol: as §1

`Cn1cc(C#Cc2cc(NC(N)=O)c(C(=O)N[C@H]3CCCCNC3)s2)cn1` [Example 41, (S)—N-(azepan-3-yl)-5-((1-methyl-1H-pyrazol-4-yl)ethynyl)-3-ureidothiophene-2-carboxamide trifluoroacetate] was tested, and the IC50 (Parental Ba/F3 cells) was 3.69 µM, the GI50 (FLT3-ITD Ba/F3 cells) was 0.013 µM and the GI50 (FLT3-D835Y Ba/F3 cells) was 0.092 µM.
With `CC(C)n1cc(C#Cc2cc(NC(N)=O)c(C(=O)N[C@H]3CCCCNC3)s2)cn1` [Example 44, (S)—N-(azepan-3-yl)-5-((1-isopropyl-1H-pyrazol-4-yl)ethynyl)-3-ureidothiophene-2-carboxamide trifluoroacetate] the IC50 (Parental Ba/F3 cells) was 2.45 µM, the GI50 (FLT3-ITD Ba/F3 cells) was 0.006 µM and the GI50 (FLT3-D835Y Ba/F3 cells) was 0.216 µM.
With `NC(=O)Nc1cc(C#Cc2ccc(F)c(F)c2)sc1C(=O)N[C@H]1CCCNC1` [Example 14, (S)-5-((3,4-difluorophenyl)ethynyl)-N-(piperidin-3-yl)-3-ureidothiophene-2-carboxamide] the IC50 (Parental Ba/F3 cells) was 0.269 µM, the GI50 (FLT3-ITD Ba/F3 cells) was less than 0.001 µM and the GI50 (FLT3-D835Y Ba/F3 cells) was 0.005 µM.
`NC(=O)Nc1cc(C#Cc2n[nH]c3ccccc23)sc1C(=O)N[C@H]1CCCNC1` [Example 12, (S)-5-((1H-indazol-3-yl)ethynyl)-N-(piperidin-3-yl)-3-ureidothiophene-2-carboxamide] was tested, and the IC50 (Parental Ba/F3 cells) was greater than 10 µM, the GI50 (FLT3-ITD Ba/F3 cells) was 0.037 µM and the GI50 (FLT3-D835Y Ba/F3 cells) was 0.289 µM.
Molecule `NC(=O)Nc1cc(C#Cc2cnn(C3CCOCC3)c2)sc1C(=O)N[C@H]1CCCCNC1` [Example 46, (S)—N-(azepan-3-yl)-5-((1-(tetrahydro-2H-pyran-4-yl)-1H-pyrazol-4-yl)ethynyl)-3-ureidothiophene-2-carboxamide trifluoroacetate] has an IC50 (Parental Ba/F3 cells) of 0.3 µM, a GI50 (FLT3-ITD Ba/F3 cells) of 0.003 µM and a GI50 (FLT3-D835Y Ba/F3 cells) of 0.042 µM.
In the case of `Cn1cc(C#Cc2cc(NC(N)=O)c(C(=O)NC3CCNC3)s2)cn1` (stereo not drawn) [Example 39, 5-((1-methyl-1H-pyrazol-4-yl)ethynyl)-N-(pyrrolidin-3-yl)-3-ureidothiophene-2-carboxamide trifluoroacetate], the IC50 (Parental Ba/F3 cells) is reported as greater than 100 µM, the GI50 (FLT3-ITD Ba/F3 cells) is reported as 3.73 µM and the GI50 (FLT3-D835Y Ba/F3 cells) is reported as 34 µM.
`NC(=O)Nc1cc(C#Cc2cccc([N+](=O)[O-])c2)sc1C(=O)N[C@H]1CCCNC1` [Example 5, (S)-5-((3-nitrophenyl)ethynyl)-N-(piperidin-3-yl)-3-ureidothiophene-2-carboxamide] showed an IC50 (Parental Ba/F3 cells) of 2.06 µM, a GI50 (FLT3-ITD Ba/F3 cells) of less than 0.005 µM and a GI50 (FLT3-D835Y Ba/F3 cells) of 0.039 µM.
With `NC(=O)Nc1cc(C#Cc2ccccn2)sc1C(=O)N[C@H]1CCCNC1` [Example 10, (S)—N-(piperidin-3-yl)-5-(pyridin-2-ylethynyl)-3-ureidothiophene-2-carboxamide] the IC50 (Parental Ba/F3 cells) was 4.62 µM, the GI50 (FLT3-ITD Ba/F3 cells) was 0.005 µM and the GI50 (FLT3-D835Y Ba/F3 cells) was 0.041 µM.
In the case of `NC(=O)Nc1cc(CCc2cccc(F)c2)sc1C(=O)N[C@H]1CCCCNC1` [Example 54, (S)—N-(azepan-3-yl)-5-(3-fluorophenethyl)-3-ureidothiophene-2-carboxamide], the IC50 (Parental Ba/F3 cells) is reported as greater than 33 µM, the GI50 (FLT3-ITD Ba/F3 cells) is reported as 1.93 µM and the GI50 (FLT3-D835Y Ba/F3 cells) is reported as 11.5 µM.
Molecule `NC(=O)Nc1cc(C#Cc2ccsc2)sc1C(=O)N[C@H]1CCCCNC1` [Example 48, (S)—N-(azepan-3-yl)-5-(thiophen-3-ylethynyl)-3-ureidothiophene-2-carboxamide trifluoroacetate] has an IC50 (Parental Ba/F3 cells) of 1.59 µM, a GI50 (FLT3-ITD Ba/F3 cells) of 0.005 µM and a GI50 (FLT3-D835Y Ba/F3 cells) of 0.067 µM.
`Cc1ccc(C#Cc2cc(NC(N)=O)c(C(=O)N[C@H]3CCCNC3)s2)cc1` [Example 24, (S)—N-(piperidin-3-yl)-5-(p-tolylethynyl)-3-ureidothiophene-2-carboxamide] showed an IC50 (Parental Ba/F3 cells) of 1.29 µM, a GI50 (FLT3-ITD Ba/F3 cells) of 0.005 µM and a GI50 (FLT3-D835Y Ba/F3 cells) of 0.039 µM.
In the case of `COCCn1cc(C#Cc2cc(NC(N)=O)c(C(=O)N[C@H]3CCCCNC3)s2)cn1` [Example 45, (S)—N-(azepan-3-yl)-5-((1-(2-methoxyethyl)-1H-pyrazol-4-yl)ethynyl)-3-ureidothiophene-2-carboxamide trifluoroacetate], the IC50 (Parental Ba/F3 cells) is reported as 16.8 µM, the GI50 (FLT3-ITD Ba/F3 cells) is reported as 0.038 µM and the GI50 (FLT3-D835Y Ba/F3 cells) is reported as 0.841 µM.
`N#Cc1cccc(C#Cc2cc(NC(N)=O)c(C(=O)N[C@H]3CCCNC3)s2)c1` [Example 6, (S)-5-((3-cyanophenyl)ethynyl)-N-(piperidin-3-yl)-3-ureidothiophene-2-carboxamide] gave an IC50 (Parental Ba/F3 cells) of 1.59 µM, a GI50 (FLT3-ITD Ba/F3 cells) of less than 0.005 µM and a GI50 (FLT3-D835Y Ba/F3 cells) of 0.041 µM.
`NC(=O)Nc1cc(C#Cc2ccc(C(F)(F)F)cc2)sc1C(=O)N[C@H]1CCCNC1` [Example 16, ((S)—N-(piperidin-3-yl)-5-((4-(trifluoromethyl)phenyl)ethynyl)-3-ureidothiophene-2-carboxamide trifluoroacetate] was tested, and the IC50 (Parental Ba/F3 cells) was 14.8 µM, the GI50 (FLT3-ITD Ba/F3 cells) was 0.006 µM and the GI50 (FLT3-D835Y Ba/F3 cells) was 0.197 µM.
`Cn1cc(C#Cc2cc(NC(N)=O)c(C(=O)N[C@H]3CCCNC3)s2)cn1` [Example 15, (S)-5-((l-methyl-1H-pyrazol-4-yl)ethynyl)-N-(piperidin-3-yl)-3-ureidothiophene-2-carboxamide trifluoroacetate] gave an IC50 (Parental Ba/F3 cells) of 34.6 µM, a GI50 (FLT3-ITD Ba/F3 cells) of 0.028 µM and a GI50 (FLT3-D835Y Ba/F3 cells) of 0.268 µM.
`NC(=O)Nc1cc(C#Cc2cccc(F)c2)sc1C(=O)N[C@H]1CCCNC1` [Example 22, (S)-5-((3-fluorophenyl)ethynyl)-N-(piperidin-3-yl)-3-ureidothiophene-2-carboxamide] gave an IC50 (Parental Ba/F3 cells) of 3.65 µM, a GI50 (FLT3-ITD Ba/F3 cells) of 0.007 µM and a GI50 (FLT3-D835Y Ba/F3 cells) of 0.052 µM.
